This experiment deals with P. falciparum W2 (chloroquine resistant) strain. Nature of the experiment: In vitro activity against cultured W2 strain P. falciparum. It is filed as cell-based, Plasmodium falciparum.

As for `COC(=O)c1ccc(Oc2ccc3c(c2)B(O)OC3)cn1` [Compound 5, Methyl 5-(1-Hydroxy-1,3-dihydrobenzo[c][1,2]oxaborol-6-yloxy)picolinate], the “fold more active than acid compound 4” value (ester 5 vs acid 4, W2 and 3D7 strains) was “about 5 fold”. With `CCN(CC)CCCC(C)Nc1ccnc2cc(Cl)ccc12` (centres unmarked) [chloroquine], under “Plasmodium falciparum, W2, 48 h, read-out: IC50 (nM) (W2)”, the IC50 worked out at 21 ± 6 nM.

What is called IC50 is the concentration that gives 50% inhibition.

The values are drawn from PMC4500456 (Journal of Medicinal Chemistry, 2015).
